Results from paper PMC6858350, “A common mechanism allows selective targeting of GluN2B subunit-containing N-methyl-D-aspartate receptors” (Communications Biology, 2019).

What was measured:
[1] = target: GluN1-1a/GluN2B NMDAR (wildtype) (Rattus norvegicus, UniProt P35439+Q00960); assay type: cell-based; conditions: for IC50 / p (slope of the dose-response curve) / A2 ± SE (maximum inhibition from dose-response curve): TEVC, wildtype; for IC50: holding potential −70 mV, 10 µM glycine and 10 µM (S)-glutamate, read-out: IC50 ± SE; for p (slope of the dose-response curve) / A2 ± SE (maximum inhibition from dose-response curve): −70 mV; for A2 ± SE (maximum inhibition from dose-response curve): flexible A2
[2] = tested on: more than 100 relevant receptors, transporters and enzymes including adrenergic (α1), dopaminergic (D1, D2), opioid (κ, μ, δ) and serotonergic receptors …; set-up: method as in earlier work; conditions: concentration of 1 - 3 µM; ref 2 (Tewes et al., Bioorg. Med. Chem. 2010); cited from earlier work
GluN1-1a WT/GluN2B F176Y [3] = target: T1, GluN1-1a WT/GluN2B F176Y (Rattus norvegicus, UniProt P35439+Q00960, F176Y); conditions: GluN2B F176Y
GluN1-1a WT/GluN2B E236A = GluN1-1a WT/GluN2B E236A (Rattus norvegicus, UniProt P35439+Q00960, E236A); conditions: GluN2B E236A
GluN1-1a WT/GluN2B Q110A [4] = target: T2, GluN1-1a WT/GluN2B Q110A (Rattus norvegicus, UniProt P35439+Q00960, Q110A); conditions: GluN2B Q110A
GluN1-1a S132A/GluN2B WT [5] = target: T3, GluN1-1a S132A/GluN2B WT (Rattus norvegicus, UniProt P35439+Q00960, S132A); conditions: GluN1-1a S132A
GluN1-1a L135N/GluN2B WT [6] = target: T4, GluN1-1a L135N/GluN2B WT (Rattus norvegicus, UniProt P35439+Q00960, L135N); conditions: GluN1-1a L135N
GluN1-1a WT/GluN2B Q110A [7] = target: T2, GluN1-1a WT/GluN2B Q110A; test: cell-based
GluN1-1a F113S/GluN2B WT [8] = target: T5, GluN1-1a F113S/GluN2B WT (Rattus norvegicus, UniProt P35439+Q00960, F113S); conditions: GluN1-1a F113S
GluN1-1a WT/GluN2B F176A [9] = target: T6, GluN1-1a WT/GluN2B F176A (Rattus norvegicus, UniProt P35439+Q00960, F176A); test: cell-based
GluN1-1a WT/GluN2B F176Y [10] = target: T1, GluN1-1a WT/GluN2B F176Y; test: cell-based
GluN1-1a Y109S/GluN2B WT [11] = target: T7, GluN1-1a Y109S/GluN2B WT (Rattus norvegicus, UniProt P35439+Q00960, Y109S); conditions: GluN1-1a Y109S
GluN1-1a/GluN2C NMDAR = GluN1-1a/GluN2C NMDAR (Rattus norvegicus, UniProt P35439+Q00961); test: cell-based; conditions: read-out: ion current inhibition % ± SEM, GluN2C
GluN1-1a/GluN2A NMDAR = GluN1-1a/GluN2A NMDAR (Rattus norvegicus, UniProt P35439+Q00959); test: cell-based; conditions: read-out: ion current inhibition % ± SEM, GluN2A
GluN1-1a/GluN2D NMDAR = GluN1-1a/GluN2D NMDAR (Rattus norvegicus, UniProt P35439+Q62645); test: cell-based; conditions: read-out: ion current inhibition % ± SEM, GluN2D
[12] = target: T8, GluN1-1a/GluN2B (ifenprodil binding site) (Homo sapiens, UniProt Q05586+Q13224); conditions: displacement of [3H]ifenprodil; Ki values previously published; read-out: Ki + SEM; cited from earlier work
T8 construct: expressed in transfected cells; host or cells: mouse L(tk) cells, dexamethasone-inducible expression; membrane fraction

GluN1-1a F113S/GluN2B WT [13] = target: T5, GluN1-1a F113S/GluN2B WT; test: cell-based
GluN1-1a WT/GluN2B I111A [14] = target: T9, GluN1-1a WT/GluN2B I111A (Rattus norvegicus, UniProt P35439+Q00960, I111A); conditions: GluN2B I111A
GluN1-1a L135N/GluN2B WT [15] = target: T4, GluN1-1a L135N/GluN2B WT; test: cell-based
GluN1-1a WT/GluN2B I111A [16] = target: T9, GluN1-1a WT/GluN2B I111A; test: cell-based
GluN1-1a WT/GluN2B F176A [17] = target: T6, GluN1-1a WT/GluN2B F176A; conditions: GluN2B F176A
GluN1-1a Y109S/GluN2B WT [18] = target: T7, GluN1-1a Y109S/GluN2B WT; test: cell-based
GluN1-1a WT/GluN2B F114A [19] = target: T10, GluN1-1a WT/GluN2B F114A (Rattus norvegicus, UniProt P35439+Q00960, F114A); test: cell-based
GluN1-1a WT/GluN2B F114A [20] = target: T10, GluN1-1a WT/GluN2B F114A; conditions: GluN2B F114A
GluN1-1a S132A/GluN2B WT [21] = target: T3, GluN1-1a S132A/GluN2B WT; test: cell-based
[22] = maximum inhibition fixed to wildtype value

T2 sequence (Q00960 27-1482 Q110A, other chains not shown): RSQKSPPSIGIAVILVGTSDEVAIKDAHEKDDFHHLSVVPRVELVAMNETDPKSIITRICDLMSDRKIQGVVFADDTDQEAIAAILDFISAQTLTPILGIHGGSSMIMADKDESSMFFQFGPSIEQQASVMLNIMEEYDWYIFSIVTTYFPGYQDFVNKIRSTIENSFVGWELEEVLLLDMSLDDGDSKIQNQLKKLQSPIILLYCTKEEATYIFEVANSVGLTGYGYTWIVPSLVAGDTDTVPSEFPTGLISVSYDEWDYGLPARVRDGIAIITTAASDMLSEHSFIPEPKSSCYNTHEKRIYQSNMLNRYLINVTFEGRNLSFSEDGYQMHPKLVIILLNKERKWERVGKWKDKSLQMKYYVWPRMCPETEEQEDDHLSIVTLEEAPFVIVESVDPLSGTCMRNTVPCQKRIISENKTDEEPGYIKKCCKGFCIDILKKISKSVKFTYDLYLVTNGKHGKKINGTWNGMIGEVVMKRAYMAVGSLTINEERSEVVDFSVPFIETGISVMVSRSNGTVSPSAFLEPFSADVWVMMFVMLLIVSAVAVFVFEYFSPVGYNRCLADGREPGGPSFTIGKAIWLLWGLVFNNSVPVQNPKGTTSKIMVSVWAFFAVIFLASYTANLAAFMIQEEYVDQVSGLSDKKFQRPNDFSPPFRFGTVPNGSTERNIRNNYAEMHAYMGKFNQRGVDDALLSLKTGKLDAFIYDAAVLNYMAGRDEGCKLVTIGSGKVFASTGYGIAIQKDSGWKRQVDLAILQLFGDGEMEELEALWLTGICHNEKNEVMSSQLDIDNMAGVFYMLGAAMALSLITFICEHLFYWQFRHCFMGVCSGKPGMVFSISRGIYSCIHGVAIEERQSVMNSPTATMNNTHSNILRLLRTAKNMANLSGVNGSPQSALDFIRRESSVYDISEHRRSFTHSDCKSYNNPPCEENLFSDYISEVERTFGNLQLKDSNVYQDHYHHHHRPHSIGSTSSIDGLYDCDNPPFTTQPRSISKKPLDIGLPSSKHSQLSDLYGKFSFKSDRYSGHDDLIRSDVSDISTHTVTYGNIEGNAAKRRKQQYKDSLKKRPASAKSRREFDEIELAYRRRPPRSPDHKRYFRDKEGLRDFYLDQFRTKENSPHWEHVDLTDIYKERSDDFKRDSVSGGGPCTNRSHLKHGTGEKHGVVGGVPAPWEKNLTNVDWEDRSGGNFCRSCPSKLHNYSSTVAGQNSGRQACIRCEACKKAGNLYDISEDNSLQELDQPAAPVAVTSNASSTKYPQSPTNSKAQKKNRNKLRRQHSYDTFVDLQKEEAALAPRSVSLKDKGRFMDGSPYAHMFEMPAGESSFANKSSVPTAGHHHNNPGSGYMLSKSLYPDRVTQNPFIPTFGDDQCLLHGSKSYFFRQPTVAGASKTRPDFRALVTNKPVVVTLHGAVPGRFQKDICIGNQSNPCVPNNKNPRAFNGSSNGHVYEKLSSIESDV
T1 sequence (Q00960 27-1482 F176Y, other chains not shown): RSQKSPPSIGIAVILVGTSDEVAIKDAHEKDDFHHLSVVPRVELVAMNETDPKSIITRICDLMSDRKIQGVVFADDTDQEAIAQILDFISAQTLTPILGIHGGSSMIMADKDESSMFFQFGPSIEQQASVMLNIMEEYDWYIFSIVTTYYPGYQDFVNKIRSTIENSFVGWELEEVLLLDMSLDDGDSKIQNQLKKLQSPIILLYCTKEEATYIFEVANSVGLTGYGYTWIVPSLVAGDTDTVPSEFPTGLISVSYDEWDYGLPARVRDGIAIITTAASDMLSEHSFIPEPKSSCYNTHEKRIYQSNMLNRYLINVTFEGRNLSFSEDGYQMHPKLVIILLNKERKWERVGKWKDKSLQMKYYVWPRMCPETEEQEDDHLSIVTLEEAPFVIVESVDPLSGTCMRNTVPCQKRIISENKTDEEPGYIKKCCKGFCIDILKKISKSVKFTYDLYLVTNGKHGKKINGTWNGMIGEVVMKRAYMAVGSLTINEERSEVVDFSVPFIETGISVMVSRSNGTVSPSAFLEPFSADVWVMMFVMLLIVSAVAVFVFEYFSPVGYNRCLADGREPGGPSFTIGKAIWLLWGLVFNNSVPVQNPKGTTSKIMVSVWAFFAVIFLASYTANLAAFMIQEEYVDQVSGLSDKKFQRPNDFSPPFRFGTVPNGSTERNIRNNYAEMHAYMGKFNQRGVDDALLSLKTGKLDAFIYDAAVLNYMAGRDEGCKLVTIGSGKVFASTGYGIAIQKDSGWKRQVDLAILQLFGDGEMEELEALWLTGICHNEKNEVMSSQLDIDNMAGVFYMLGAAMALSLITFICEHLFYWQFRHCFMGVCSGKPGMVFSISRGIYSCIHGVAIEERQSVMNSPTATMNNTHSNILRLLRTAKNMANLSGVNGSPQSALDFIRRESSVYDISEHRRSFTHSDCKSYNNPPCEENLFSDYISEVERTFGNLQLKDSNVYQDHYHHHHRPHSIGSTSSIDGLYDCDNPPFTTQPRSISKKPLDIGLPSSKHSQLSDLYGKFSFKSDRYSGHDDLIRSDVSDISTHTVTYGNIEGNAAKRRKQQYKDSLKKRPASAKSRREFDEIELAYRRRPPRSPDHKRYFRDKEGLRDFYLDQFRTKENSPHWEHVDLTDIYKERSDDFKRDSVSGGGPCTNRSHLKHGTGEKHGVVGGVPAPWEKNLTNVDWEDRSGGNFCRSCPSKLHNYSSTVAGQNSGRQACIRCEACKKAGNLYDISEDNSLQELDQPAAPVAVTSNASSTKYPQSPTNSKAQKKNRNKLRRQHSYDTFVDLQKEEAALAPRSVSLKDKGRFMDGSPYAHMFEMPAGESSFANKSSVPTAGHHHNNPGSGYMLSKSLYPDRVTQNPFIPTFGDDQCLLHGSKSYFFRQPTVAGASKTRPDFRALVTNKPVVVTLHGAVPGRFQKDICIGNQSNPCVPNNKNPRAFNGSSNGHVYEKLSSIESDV
T7 sequence (Q00960 27-1482, other chains not shown): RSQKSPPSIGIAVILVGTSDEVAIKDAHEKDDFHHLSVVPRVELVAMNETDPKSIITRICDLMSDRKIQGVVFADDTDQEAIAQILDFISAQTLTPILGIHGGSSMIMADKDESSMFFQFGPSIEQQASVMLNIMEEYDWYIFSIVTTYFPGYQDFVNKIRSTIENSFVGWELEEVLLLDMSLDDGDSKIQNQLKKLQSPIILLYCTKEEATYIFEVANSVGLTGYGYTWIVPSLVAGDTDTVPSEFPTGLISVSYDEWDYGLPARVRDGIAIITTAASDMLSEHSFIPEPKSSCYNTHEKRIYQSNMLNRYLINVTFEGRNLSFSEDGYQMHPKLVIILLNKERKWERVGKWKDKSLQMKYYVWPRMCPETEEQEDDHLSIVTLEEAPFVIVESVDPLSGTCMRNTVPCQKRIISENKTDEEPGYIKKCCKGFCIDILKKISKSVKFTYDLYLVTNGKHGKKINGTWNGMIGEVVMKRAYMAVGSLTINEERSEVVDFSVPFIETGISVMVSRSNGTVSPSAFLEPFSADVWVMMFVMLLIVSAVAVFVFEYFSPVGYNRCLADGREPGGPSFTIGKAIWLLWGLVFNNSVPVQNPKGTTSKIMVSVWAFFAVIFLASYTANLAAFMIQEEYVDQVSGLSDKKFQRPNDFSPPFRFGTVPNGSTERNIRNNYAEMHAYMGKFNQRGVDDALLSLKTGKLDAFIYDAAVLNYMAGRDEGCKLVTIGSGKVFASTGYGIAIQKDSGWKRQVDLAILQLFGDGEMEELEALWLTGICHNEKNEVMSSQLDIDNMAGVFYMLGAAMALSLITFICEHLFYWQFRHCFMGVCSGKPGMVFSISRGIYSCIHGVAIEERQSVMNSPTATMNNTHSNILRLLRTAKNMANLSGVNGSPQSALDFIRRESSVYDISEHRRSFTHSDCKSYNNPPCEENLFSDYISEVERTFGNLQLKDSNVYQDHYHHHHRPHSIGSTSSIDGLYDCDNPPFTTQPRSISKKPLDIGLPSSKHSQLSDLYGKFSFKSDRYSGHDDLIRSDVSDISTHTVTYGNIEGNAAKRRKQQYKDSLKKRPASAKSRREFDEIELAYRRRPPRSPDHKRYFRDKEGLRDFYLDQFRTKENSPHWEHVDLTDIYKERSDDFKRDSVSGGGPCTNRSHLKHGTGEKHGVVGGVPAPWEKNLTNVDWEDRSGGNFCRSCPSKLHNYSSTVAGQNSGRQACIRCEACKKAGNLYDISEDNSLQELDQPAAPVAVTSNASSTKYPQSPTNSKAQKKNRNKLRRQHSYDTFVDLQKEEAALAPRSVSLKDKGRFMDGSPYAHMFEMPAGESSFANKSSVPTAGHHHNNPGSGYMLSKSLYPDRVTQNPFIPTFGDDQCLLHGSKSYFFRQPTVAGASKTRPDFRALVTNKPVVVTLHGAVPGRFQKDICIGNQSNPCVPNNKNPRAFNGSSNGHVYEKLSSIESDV

Q: With `Oc1ccc2c(c1)CCN(CCCCc1ccccc1)CC2O` (racemic) [compound rac-1] as the compound, how does the IC50 [1] read?
A: The IC50 was 94 ± 8 nM.

Q: What about the “p (slope of the dose-response curve)” value [1] of the same compound?
A: Its value is 1.25.

Q: What about the “A2 ± SE (maximum inhibition from dose-response curve)” value [1] of the same compound?
A: Its value is 93 ± 2%.

Q: And the “competition with the employed radioligands” value [2]?
A: Its value is “did not compete”.

Q: Which results are given for `Oc1ccc2c(c1)CCN(CCCCc1ccccc1)C[C@H]2O` [compound (S)-1]?
A: p (slope) (GluN1-1a WT/GluN2B F176Y [3]): 0.82; A2, fixed-to-wildtype (*) (GluN1-1a WT/GluN2B F176Y [3]; [22]): 95%; p (slope) (GluN1-1a WT/GluN2B E236A): 0.99; A2 ± SE (GluN1-1a WT/GluN2B E236A; flexible A2): 96 ± 8%; p (slope) (GluN1-1a WT/GluN2B Q110A [4]): 1.27; A2 ± SE (GluN1-1a WT/GluN2B Q110A [4]; flexible A2): 94 ± 2%; p (slope) (GluN1-1a S132A/GluN2B WT [5]): 1.16; A2 ± SE (GluN1-1a S132A/GluN2B WT [5]; flexible A2): 89 ± 1%; p (slope) (GluN1-1a L135N/GluN2B WT [6]): 0.98; A2 ± SE (GluN1-1a L135N/GluN2B WT [6]; flexible A2): 68 ± 7%; IC50 (GluN1-1a WT/GluN2B Q110A [7]): 243 ± 34 nM; p (slope) (GluN1-1a F113S/GluN2B WT [8]): 0.87; A2 ± SE (GluN1-1a F113S/GluN2B WT [8]; flexible A2): 89 ± 4%; IC50 (GluN1-1a WT/GluN2B F176A [9]): 15500 ± 1790 nM; IC50 (GluN1-1a WT/GluN2B F176Y [10]): 261 ± 25 nM; p (slope) (GluN1-1a Y109S/GluN2B WT [11]): 0.85; A2 ± SE (GluN1-1a Y109S/GluN2B WT [11]; flexible A2): 79 ± 4%; inhibition at 10 µM (GluN1-1a/GluN2C NMDAR): 19 ± 2%; inhibition at 10 µM (GluN1-1a/GluN2A NMDAR): 6 ± 2%; inhibition at 10 µM (GluN1-1a/GluN2D NMDAR): 21 ± 3%; Ki [12]: 740 ± 61 nM; IC50 [1]: 206 ± 23 nM; p (slope of the dose-response curve) [1]: 0.98; A2 ± SE (maximum inhibition from dose-response curve) [1]: 95 ± 2%; inhibition at 10 µM ([1]; read-out: ion current inhibition % ± SEM, GluN2B): 93 ± 1%; IC50 (GluN1-1a F113S/GluN2B WT [13]): 756 ± 137 nM; p (slope) (GluN1-1a WT/GluN2B I111A [14]): 0.89; A2 ± SE (GluN1-1a WT/GluN2B I111A [14]; flexible A2): 73 ± 6%; IC50 (GluN1-1a L135N/GluN2B WT [15]): 3660 ± 1180 nM; IC50 (GluN1-1a WT/GluN2B I111A [16]): 1560 ± 504 nM; p (slope) (GluN1-1a WT/GluN2B F176A [17]): 1.00; A2, fixed-to-wildtype (*) (GluN1-1a WT/GluN2B F176A [17]; [22]): 95%; IC50 (GluN1-1a Y109S/GluN2B WT [18]): 764 ± 189 nM; IC50 (GluN1-1a WT/GluN2B F114A [19]): 38900 ± 5280 nM; p (slope) (GluN1-1a WT/GluN2B F114A [20]): 1.26; A2, fixed-to-wildtype (*) (GluN1-1a WT/GluN2B F114A [20]; [22]): 95%; IC50 (GluN1-1a S132A/GluN2B WT [21]): 691 ± 44 nM
